How the values were obtained:
Details in all cases: 48 h
CU-ACC1 [1] = assay: AC50 viability; higher = less potent
Procedure, shortened: (§1)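 In 1,536-well plates, 500–1,000 cells/well of three adrenocortical carcinoma cell lines in 5 µL medium received 23 nL of each library compound across 11 concentrations. At 48 h, CellTiter-Glo was incubated for 15 minutes at room temperature and luminescence measured. Per-plate normalisation used vehicle and empty-well controls, and only inhibitory or non-responding curve classes were kept when fitting concentration-response curves for AC50 and area under the curve.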

NCI-H295R [2] = assay: AC50 viability; higher = less potent
Procedure, shortened: as §1

CU-ACC1 [3] = assay: area under concentration-response curve (viability) (AUC (a.u.)); higher = less active
Procedure, shortened: as §1

NCI-H295R [4] = assay: as above
Procedure, shortened: as §1

CU-ACC2 = assay: as above
Procedure, shortened: as §1

| Compound | AC50 viability (CU-ACC1 [1]) | AC50 viability (NCI-H295R [2]) | area under concentration-response curve (CU-ACC1 [3]) | area under concentration-response curve (NCI-H295R [4]) | area under concentration-response curve (CU-ACC2) |
| --- | --- | --- | --- | --- | --- |
| CCN1CCC(n2cc(CNc3cc(Cl)c4ncc(C#N)c(Nc5ccc(F)c(Cl)c5)c4c3)nn2)CC1 | 16.6 µM | 23.5 µM | 456 | 494 | – |
| Cl.Cl.Cl.O[C@@H](COc1cccc2ncccc12)CN1CCN([C@@H]2c3ccccc3[C@@H]3[C@H](c4ccccc42)C3(F)F)CC1 | 23.5 µM | 16.6 µM | 515 | 490 | – |
| NC(=O)c1cccc(-c2cc(Nc3ccc(OC(F)(F)F)cc3)ncn2)c1 | 16.6 µM | 20.9 µM | 488 | 538 | – |
| Cc1c(C(=O)NN2CCCCC2)nn(-c2ccc(Cl)cc2Cl)c1-c1ccc(Cl)cc1 | 20.9 µM | 18.6 µM | 396 | 433 | – |
| Nc1ccc(F)cc1NC(=O)c1ccc(CNC(=O)/C=C/c2cccnc2)cc1 | 9.34 µM | 8.33 µM | 341 | 433 | – |
| CCNc1cc(NC2CCC(O)CC2)nc(Nc2ccc3c(ccn3Cc3ccccc3)c2)n1 (centres undefined) | 0.0235 µM | 1.18 µM | 149 | 156 | – |
| CN(C)CCCN1c2ccccc2CCc2ccc(Cl)cc21 | 18.6 µM | 23.5 µM | 473 | 535 | – |
| CC(C)n1cnc2c(NCCCCCCNC(=O)OC(C)(C)C)nc(NCCO)nc21 | 16.6 µM | 23.5 µM | 414 | 481 | – |
| CCN1CCN(Cc2ccc(NC(=O)c3ccc(C)c(/C=C/c4cnc5[nH]ccc5c4OC)c3)cc2C(F)(F)F)CC1 | 9.34 µM | 7.42 µM | 461 | 471 | – |
| CC[C@H](C)[N]1C=C(C)C2=C1C=C(C=C2C(=O)NC\C3=C(C)\C=C(\C)NC3=O)C4=CC=C(N=C4)N5CCNCC5 | 18.6 µM | 23.5 µM | 449 | 493 | – |
| C[S+](=O)([O-])CCNCc1ccc(-c2ccc3ncnc(Nc4ccc(OCc5cccc(F)c5)c(Cl)c4)c3c2)o1 | 23.5 µM | 20.9 µM | 420 | 456 | – |
| FC(F)(F)C1=CC=C2C(SCCCCCO\C3=C\O\C(CN4CCOCC4)=C/C3=O)=CC=NC2=C1 | 8.33 µM | 18.6 µM | 295 | 324 | – |
| O=C(C(c1ccccc1)c1ccccc1)N1CCN(CC(O)COc2cccc3ncccc23)CC1 (centres undefined) | 23.5 µM | 16.6 µM | 467 | 524 | – |
| O=C(Nc1cccnn1)N1CCC(=Cc2cccc(Oc3ccc(C(F)(F)F)cn3)c2)CC1 | 20.9 µM | 20.9 µM | 361 | 445 | – |
| Cc1ccc(NC(=O)c2ccc(CN3CCN(C)CC3)cc2)cc1Nc1nccc(-c2cccnc2)n1 | 23.5 µM | 20.9 µM | 484 | 469 | – |
| CC(C)C(=O)Nc1ncc(-c2cc(C(F)F)nn2-c2c(Cl)cccc2Cl)s1 | 23.5 µM | 23.5 µM | 472 | 507 | – |

| Compound | AC50 viability (CU-ACC1 [1]) | AC50 viability (NCI-H295R [2]) | area under concentration-response curve (CU-ACC1 [3]) | area under concentration-response curve (NCI-H295R [4]) | area under concentration-response curve (CU-ACC2) |
| --- | --- | --- | --- | --- | --- |
| NC(=O)N1CCC(CC(=O)N2CCC([C@H]3c4ncc(Br)cc4CCc4cc(Cl)cc(Br)c43)CC2)CC1 | 37.2 µM | 23.5 µM | 440 | 440 | – |
| CN1CCN(CCCN2c3ccccc3Sc3ccc(C(F)(F)F)cc32)CC1 | 29.5 µM | 18.6 µM | 441 | 480 | – |
| COC(=O)N1CCN(Cc2cccc(NC(=O)Nc3ccc(C)nc3)c2F)CC1 | 74.2 µM | – | 486 | 573 | 601 |
| COC1CCN(CC1)C(=O)C2=CC(=CC=C2F)CC/3=N/NC(=O)C4=CC=CC=C34 | 0.209 µM | – | 441 | 423 | 457 |
| COc1ccc(Cc2nccc3cc(OC)c(OC)cc23)cc1OC | 6.61 µM | – | 384 | 533 | 583 |
| CCc1c(C(=O)NNC(=O)[C@@H](O)c2cc(F)cc(F)c2)ccc(O)c1C | 26.3 µM | – | 387 | 441 | 492 |
| Cn1cnc2c(F)c(Nc3ccc(Br)cc3F)c(C(=O)NOCCO)cc21 | 0.0332 µM | – | 242 | 159 | 145 |
| CN(C)C(=O)[C@H](O)[C@H](Cc1ccccc1)NC(=O)c1cc2cc(Cl)ccc2[nH]1 | 0.0118 µM | – | 364 | 444 | 420 |
| COc1nnc2ccc(N3CCC(c4ccc(OCCN5CCN(C)C(=O)[C@H]5C)cc4)CC3)nn12 | 0.263 µM | – | 468 | 474 | 449 |
| CNC(=O)c1c(F)cccc1Nc1nc(Nc2cc3c(cc2OC)CCN3C(=O)CN(C)C)nc2[nH]ccc12 | 20.9 µM | – | 524 | 458 | 526 |
| CCC(=O)N[C@H]1CC[C@H](C(=O)N(C)c2ccc(-c3nc4ccccc4o3)cc2)C1 | 23.5 µM | – | 548 | 555 | 661 |
| COc1ccc2cc3[n+](cc2c1OC)CCc1cc2c(cc1-3)OCO2 | 4.68 µM | – | 444 | 557 | 573 |
| COCCOC1=CN=C2\C=C/N([C@H](C)C3=NN=C4[N]3C=C(C=C4F)C5=C[N](C)N=C5)C(=O)C2=C1 | 0.0118 µM | – | 394 | 322 | 338 |
| C=CC(=O)N1CCC(C2CCNc3c(C(N)=O)c(-c4ccc(Oc5ccccc5)cc4)nn32)CC1 (centres undefined) | 16.6 µM | – | 492 | 553 | 614 |
| [O-]C(=O)C1=C(C(=C(Cl)C(=C1Cl)Cl)Cl)C/2=C/3\C=C(I)/C(=O)/C(=C3OC4=C2C=C(I)C(=C4I)[O-])I | 13.2 µM | – | 421 | 417 | 434 |

From the supplement of paper PMC10949913
